Reference: patent US20100267561A1, “HERBICIDAL PYRIDAZINONE DERIVATIVES” (priority 2007, published 2010)

What was measured:
Test in all cases: Test B pre-/postemergence plant response
Type in all cases: in vivo
kochia (Kochia scoparia) = conditions: for Kochia plant response rating: 8 g ai/ha
In short: (§1)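 Seeds were sown and sprayed preemergence, while plants at 2 to 18 cm (1- to 4-leaf stage) got postemergence sprays. Compounds were formulated in a non-phytotoxic solvent mixture with surfactant. After 13 to 15 days in a greenhouse, injury was rated visually against untreated controls, 0 (no effect) to 100 (complete control).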

[1] = tested on: cocklebur (Xanthium strumarium); conditions: for Cocklebur plant response rating: 8 g ai/ha
In short: as §1

[2] = tested on: lambsquarters (Chenopodium album); conditions: for Lambsquarters plant response rating: 8 g ai/ha
In short: as §1

[3] = tested on: woolly cupgrass (Eriochloa villosa); conditions: for Cupgrass, Woolly plant response rating: 8 g ai/ha
In short: as §1

[4] = tested on: velvetleaf (Abutilon theophrasti); conditions: for Velvetleaf plant response rating: 8 g ai/ha
In short: as §1

[5] = tested on: common ragweed (Ambrosia elation); conditions: for Ragweed plant response rating: 8 g ai/ha
In short: as §1

[6] = tested on: blackgrass (Alopecurus myosuroides); conditions: for Blackgrass plant response rating: 8 g ai/ha
In short: as §1

corn (Zea mays) = conditions: for Corn plant response rating: 8 g ai/ha
In short: as §1

[7] = tested on: catchweed bedstraw (Galium aparine); conditions: Preemergence
In short: as §1

[8] = tested on: pigweed (Amaranthus retroflexus); conditions: for Pigweed plant response rating: 8 g ai/ha
In short: as §1

[9] = tested on: green foxtail (Setaria viridis); conditions: for Foxtail, Green plant response rating: 8 g ai/ha
In short: as §1

wild oat (Avena fatua) = conditions: for Oat, Wild plant response rating: 8 g ai/ha
In short: as §1

[10] = tested on: yellow nutsedge (Cyperus esculentus); conditions: for Nutsedge, Yellow plant response rating: 8 g ai/ha
In short: as §1

[11] = tested on: large crabgrass (Digitaria sanguinalis); conditions: for Crabgrass, Large plant response rating: 8 g ai/ha
In short: as §1

[12] = Postemergence, 16 g ai/ha, scale 0 to 100
[13] = Postemergence, 31 g ai/ha, scale 0 to 100, 0 no effect, 100 complete control
[14] = Postemergence, 62 g ai/ha, scale 0 to 100, 0 no effect, 100 complete control
[15] = Preemergence, 16 g ai/ha, scale 0 to 100 (0 no effect, 100 complete control)
[16] = Preemergence, 31 g ai/ha, 0 to 100 scale, 0 no effect, 100 complete control
[17] = Preemergence, 62 g ai/ha, scale 0 to 100

Structure (SMILES): Cc1cc(-c2ccc(Cl)cc2)nn1-c1c(OS(=O)(=O)c2ccccc2)cnn(C)c1=O [Compound 35]
- Kochia plant response rating (kochia (Kochia scoparia); postemergence, 0-100 scale): 0
- Plant response rating, Kochia (kochia (Kochia scoparia); [12]): 0
- Plant response rating, Kochia (kochia (Kochia scoparia); [13]): 0
- Plant response rating, Kochia (kochia (Kochia scoparia); [14]): 0
- Plant response rating, Kochia (kochia (Kochia scoparia); [15]): 0
- Plant response rating, Kochia (kochia (Kochia scoparia); [16]): 0
- Kochia plant response rating (kochia (Kochia scoparia); Preemergence, scale 0 to 100): 0
- Cocklebur plant response rating ([1]; postemergence, 0-100 scale): 0
- Plant response rating, Cocklebur [1, 12]: 0
- Plant response rating, Cocklebur [1, 13]: 0
- Plant response rating, Cocklebur [1, 14]: 0
- Plant response rating, Cocklebur [1, 15]: 0
- Plant response rating, Cocklebur [1, 16]: 0
- Plant response rating, Cocklebur [1, 17]: 0
- Cocklebur plant response rating ([1]; Preemergence, scale 0 to 100): 0
- Lambsquarters plant response rating ([2]; postemergence, 0-100 scale): 0
- Plant response rating, Lambsquarters [2, 12]: 0
- Plant response rating, Lambsquarters [2, 13]: 0
- Plant response rating, Lambsquarters [2, 14]: 0
- Plant response rating, Lambsquarters [2, 15]: 0
- Plant response rating, Lambsquarters [2, 16]: 0
- Plant response rating, Lambsquarters [2, 17]: 0
- Lambsquarters plant response rating ([2]; Preemergence, scale 0 to 100): 0
- Cupgrass, Woolly plant response rating ([3]; postemergence, 0-100 scale): 80
- Plant response rating, Cupgrass, Woolly [3, 12]: 95
- Plant response rating, Cupgrass, Woolly [3, 13]: 100
- Plant response rating, Cupgrass, Woolly [3, 14]: 100
- Plant response rating, Cupgrass, Woolly [3, 15]: 35
- Plant response rating, Cupgrass, Woolly [3, 16]: 100
- Plant response rating, Cupgrass, Woolly [3, 17]: 100
- Cupgrass, Woolly plant response rating ([3]; Preemergence, scale 0 to 100): 35
- Velvetleaf plant response rating ([4]; postemergence, 0-100 scale): 0
- Plant response rating, Velvetleaf [4, 12]: 0
- Plant response rating, Velvetleaf [4, 14]: 0
- Plant response rating, Velvetleaf [4, 15]: 0
- Plant response rating, Velvetleaf [4, 16]: 0
- Plant response rating, Velvetleaf [4, 17]: 0
- Velvetleaf plant response rating ([4]; Preemergence, scale 0 to 100): 0
- Ragweed plant response rating ([5]; postemergence, 0-100 scale): 0
- Plant response rating, Ragweed [5, 12]: 0
- Plant response rating, Ragweed [5, 13]: 0
- Plant response rating, Ragweed [5, 14]: 0
- Plant response rating, Ragweed [5, 15]: 0
- Plant response rating, Ragweed [5, 16]: 0
- Plant response rating, Ragweed [5, 17]: 0
- Ragweed plant response rating ([5]; Preemergence, scale 0 to 100): 0
- Blackgrass plant response rating ([6]; postemergence, 0-100 scale): 0
- Plant response rating, Blackgrass [6, 12]: 60
- Plant response rating, Blackgrass [6, 13]: 70
- Plant response rating, Blackgrass [6, 14]: 90
- Plant response rating, Blackgrass [6, 15]: 85
- Plant response rating, Blackgrass [6, 16]: 100
- Plant response rating, Blackgrass [6, 17]: 100
- Blackgrass plant response rating ([6]; Preemergence, scale 0 to 100): 0
- Corn plant response rating (corn (Zea mays); postemergence, 0-100 scale): 40
- Plant response rating, Corn (corn (Zea mays); [12]): 90
- Plant response rating, Corn (corn (Zea mays); [13]): 100
- Plant response rating, Corn (corn (Zea mays); [14]): 100
- Plant response rating, Corn (corn (Zea mays); [15]): 40
- Plant response rating, Corn (corn (Zea mays); [16]): 55
- Plant response rating, Corn (corn (Zea mays); [17]): 90
- Corn plant response rating (corn (Zea mays); Preemergence, scale 0 to 100): 5
- Plant response rating, Galium ([7]; 16 g ai/ha, scale 0 to 100 (0 no effect, 100 complete control)): 0
- Plant response rating, Galium ([7]; 31 g ai/ha, 0 to 100 scale, 0 no effect, 100 complete control): 0
- Plant response rating, Galium ([7]; 62 g ai/ha, scale 0 to 100): 20
- Galium plant response rating ([7]; 8 g ai/ha, scale 0 to 100): 0
- Pigweed plant response rating ([8]; postemergence, 0-100 scale): 0
- Plant response rating, Pigweed [8, 12]: 0
- Plant response rating, Pigweed [8, 13]: 0
- Plant response rating, Pigweed [8, 14]: 0
- Plant response rating, Pigweed [8, 15]: 0
- Plant response rating, Pigweed [8, 16]: 0
- Plant response rating, Pigweed [8, 17]: 0
- Pigweed plant response rating ([8]; Preemergence, scale 0 to 100): 0
- Foxtail, Green plant response rating ([9]; postemergence, 0-100 scale): 0
- Plant response rating, Foxtail, Green [9, 12]: 75
- Plant response rating, Foxtail, Green [9, 13]: 95
- Plant response rating, Foxtail, Green [9, 14]: 95
- Plant response rating, Foxtail, Green [9, 15]: 100
- Plant response rating, Foxtail, Green [9, 16]: 100
- Plant response rating, Foxtail, Green [9, 17]: 100
- Foxtail, Green plant response rating ([9]; Preemergence, scale 0 to 100): 30
- Oat, Wild plant response rating (wild oat (Avena fatua); postemergence, 0-100 scale): 50
- Plant response rating, Oat, Wild (wild oat (Avena fatua); [12]): 70
- Plant response rating, Oat, Wild (wild oat (Avena fatua); [13]): 85
- Plant response rating, Oat, Wild (wild oat (Avena fatua); [14]): 95
- Plant response rating, Oat, Wild (wild oat (Avena fatua); [16]): 80
- Plant response rating, Oat, Wild (wild oat (Avena fatua); [17]): 95
- Oat, Wild plant response rating (wild oat (Avena fatua); Preemergence, scale 0 to 100): 0
- Nutsedge, Yellow plant response rating ([10]; postemergence, 0-100 scale): 0
- Plant response rating, Nutsedge, Yellow [10, 12]: 0
- Plant response rating, Nutsedge, Yellow [10, 13]: 0
- Plant response rating, Nutsedge, Yellow [10, 14]: 0
- Plant response rating, Nutsedge, Yellow [10, 15]: 0
- Plant response rating, Nutsedge, Yellow [10, 16]: 0
- Plant response rating, Nutsedge, Yellow [10, 17]: 0
- Nutsedge, Yellow plant response rating ([10]; Preemergence, scale 0 to 100): 0
- Crabgrass, Large plant response rating ([11]; postemergence, 0-100 scale): 60
- Plant response rating, Crabgrass, Large [11, 12]: 70
- Plant response rating, Crabgrass, Large [11, 13]: 80
- Plant response rating, Crabgrass, Large [11, 14]: 100
- Plant response rating, Crabgrass, Large [11, 15]: 100
- Plant response rating, Crabgrass, Large [11, 16]: 100
- Plant response rating, Crabgrass, Large [11, 17]: 100
- Crabgrass, Large plant response rating ([11]; Preemergence, scale 0 to 100): 90
